12 compounds from PubChem BioAssay (NCI) can be followed below.

Where “and” joins values, the source holds several entries; their conditions need not be identical. Equal entries are not always repeated.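 Assay format: 96-well plates, 48-hour exposure. The concentration for 50% growth inhibition is given as GI50. The concentration for full growth arrest is given as TGI.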

Some test systems named below: ACHN renal; EKVX NSCLC; HT29 colon; IGROV1 ovarian; LOX IMVI melanoma; PC-3 prostate; RPMI-8226 leukemia; SW-620 colon; NCI-H522 lung; RXF 393 renal; HL-60(TB) leukemia.
What all share (assay): inhibition of tumour cell growth, NCI panel, 48 h

For `CC1(C)OCC(C(O)C2OC(C)(C)OC2C=O)O1` (centres undefined), the TGI with ACHN renal, in the experiment on EKVX NSCLC, in the experiment with HT29 colon, in the experiment on IGROV1 ovarian, in the experiment with LOX IMVI melanoma and in the experiment with PC-3 prostate was greater than 100 µM in each case. Moreover, the TGI with RPMI-8226 leukemia and in the experiment on SW-620 colon was greater than 100 µM in each case.

Take `Nc1cccc2c1C(=O)c1cccc(N)c1C2=O`: the TGI with ACHN renal, in the experiment with EKVX NSCLC, with HT29 colon, with IGROV1 ovarian, in the experiment with LOX IMVI melanoma and with NCI-H522 lung was greater than 100 µM each time. Besides, the TGI in the experiment with RPMI-8226 leukemia, in the experiment on RXF 393 renal and in the experiment on SW-620 colon was greater than 100 µM each time.

`C/C(=C\c1ccccn1)c1ccccn1`: the TGI in the experiment with ACHN renal, with EKVX NSCLC, in the experiment with HT29 colon, with IGROV1 ovarian, in the experiment with NCI-H522 lung and in the experiment on PC-3 prostate was greater than 100 µM in each case. The TGI in the experiment with RPMI-8226 leukemia and in the experiment with RXF 393 renal was greater than 100 µM throughout.

As to `COC(=O)C1CCC(=O)N1C(=O)Cc1ccc(OC)cc1` (centres undefined), the TGI with ACHN renal, in the experiment on EKVX NSCLC, in the experiment on HT29 colon, in the experiment on IGROV1 ovarian, with LOX IMVI melanoma and with NCI-H522 lung was greater than 100 µM in each case. The same compound displayed a TGI with SW-620 colon greater than 100 µM.

In the case of `COc1ccc(/C=c2\[nH]c3nc(=O)c(N4CCOCC4)c(N)n3c2=O)cc1`, the TGI in the experiment on ACHN renal, in the experiment with EKVX NSCLC, in the experiment with HL-60(TB) leukemia, with HT29 colon, in the experiment on IGROV1 ovarian and in the experiment with LOX IMVI melanoma was greater than 100 µM each time. The TGI in the experiment with NCI-H522 lung, with RPMI-8226 leukemia, in the experiment on RXF 393 renal and in the experiment on SW-620 colon was greater than 100 µM in each case.

Regarding `c1ccc(CCN2CCc3[nH]c4ccccc4c3C2)cc1`, the TGI was 96.7 µM with ACHN renal; greater than 100 µM in the experiment on EKVX NSCLC; 41.7 µM in the experiment with HL-60(TB) leukemia; 28.5 µM in the experiment with HT29 colon; 67.8 µM with IGROV1 ovarian; 35.4 µM in the experiment with LOX IMVI melanoma. Further, the TGI is greater than 10 µM in the experiment on RPMI-8226 leukemia, 34.3 µM with RXF 393 renal and 29.6 µM in the experiment on SW-620 colon.

On to `[Cl][Pt+2][Cl].[NH-]C1CCCCC1[NH-]` (centres undefined), for which the TGI was > 100 µM and 55.2 µM and 31.1 µM in the experiment on EKVX NSCLC; 4.49 µM and 8.45 µM and 1.89 µM in the experiment on HL-60(TB) leukemia; > 100 µM and 31 µM with HT29 colon; > 100 µM and 45.8 µM with IGROV1 ovarian; greater than 59.3 µM in the experiment with LOX IMVI melanoma; 20.7 µM and 38.2 µM and 12.4 µM in the experiment on NCI-H522 lung. The TGI in the experiment on RPMI-8226 leukemia was greater than 50.5 µM; with RXF 393 renal, greater than 100 µM; in the experiment on SW-620 colon it was 44.1 µM and > 56.4 µM and 13.1 µM. Besides, the GI50 in the experiment on HL-60(TB) leukemia was 0.884 µM and 1.46 µM and 0.199 µM; in the experiment on IGROV1 ovarian, 18.9 µM and 9.23 µM and 2.45 µM; in the experiment with NCI-H522 lung, 3.31 µM and 5.88 µM and 1.49 µM; in the experiment on RXF 393 renal, > 57.9 µM and 66.8 µM and > 28.6 µM.

Turning to `OCC1OC(n2cnc3cncnc32)C(O)C1O` (centres undefined), the TGI stood at 4.18 µM in the experiment on EKVX NSCLC; 1.73 µM with HL-60(TB) leukemia; 2.89 µM in the experiment on HT29 colon; 4.81 µM in the experiment on IGROV1 ovarian; 2.46 µM in the experiment on LOX IMVI melanoma; 5.42 µM with NCI-H522 lung. Also, the TGI was 7.95 µM in the experiment on RPMI-8226 leukemia, 3.9 µM in the experiment on RXF 393 renal and 1.84 µM with SW-620 colon.

Regarding `Cc1ccccc1-n1c(C)nc2c1C(=O)c1ccccc1C2=O`, the TGI with ACHN renal was greater than 100 µM; in the experiment on EKVX NSCLC, greater than 100 µM; in the experiment with HL-60(TB) leukemia it was 87.5 µM; with HT29 colon, greater than 100 µM; in the experiment with NCI-H522 lung, 68.3 µM; in the experiment with RXF 393 renal it was greater than 100 µM. In the experiment on SW-620 colon, this compound registered a TGI greater than 100 µM.

As for `Cc1ccc(C(C)(C)C[P+](C)(c2ccccc2)c2ccccc2)cc1`, the TGI is greater than 100 µM in the experiment on EKVX NSCLC; 7.56 µM with HL-60(TB) leukemia; 43.8 µM in the experiment with HT29 colon; greater than 100 µM in the experiment with IGROV1 ovarian; 37.8 µM with LOX IMVI melanoma; 19.1 µM in the experiment on NCI-H522 lung. The figures for the TGI in the experiment with RPMI-8226 leukemia, with RXF 393 renal and in the experiment on SW-620 colon were 6.7 µM, greater than 94.1 µM and greater than 100 µM, respectively.

On to `Cc1cccc2c1[nH]c1[nH]c(=O)[nH]c(=O)c12`, for which the TGI in the experiment with ACHN renal, in the experiment on EKVX NSCLC, with HL-60(TB) leukemia, in the experiment with HT29 colon, in the experiment on IGROV1 ovarian and with LOX IMVI melanoma was greater than 100 µM throughout. For the same compound, the TGI with NCI-H522 lung, in the experiment on RPMI-8226 leukemia, in the experiment with RXF 393 renal and in the experiment with SW-620 colon was greater than 100 µM each time.

For the compound `COc1ccc(N(C)C(=O)N(C)c2ccc([N+](=O)[O-])cc2)cc1`, the TGI in the experiment on ACHN renal, in the experiment with EKVX NSCLC, in the experiment on HL-60(TB) leukemia, in the experiment on HT29 colon, with IGROV1 ovarian and with LOX IMVI melanoma was greater than 100 µM in each case. For the same compound, the TGI with NCI-H522 lung is greater than 100 µM; with RPMI-8226 leukemia, greater than 100 µM; with RXF 393 renal it was 76.2 µM; in the experiment with SW-620 colon, greater than 100 µM.
